Legend:
[1] = Photophysical properties of meta-substituted nanohoops (absorption, emission, extinction coefficient, quantum yield); type: physicochemical; details: for εAmax × ΦAmax (brightness) / εH→L: [n]mCPP; for Emission / Max Abs / ΦAmax (fluorescence quantum yield) / εAmax: dichloromethane; for ΦAmax (fluorescence quantum yield): room temperature; for εAmax: extinction coefficient at the absorbance maximum; for εH→L: extinction coefficient of the HOMO→LUMO transition; for CPP ε × Φ (brightness): all-para [n]CPP with the same number of rings
Description: In the following examples, all glassware was flame dried and cooled under an inert atmosphere of nitrogen unless otherwise noted. Moisture sensitive reactions were carried out under nitrogen atmosphere using Schlenk and standard syringe/septa techniques. Tetrahydrofuran, dichloromethane, dimethylformamide and 1,4-dioxane were dried by filtration through alumina according to the methods describes by Grubbs. Silica column chromatography was conducted with Zeochem Zeoprep 60 Eco 40-63 μm silica gel. Automated flash chromatography was performed using a Biotage Isolera One. Recycling gel permeation chromatography (GPC) was performed using a Japan Analytical Industry LC-9101 preparative HPLC with JAIGEL-1H/JAIGEL-2H columns in series using CHCl3. Thin Layer Chromatography (TLC) was performed using Sorbent Technologies Silica Gel XHT TLC plates. Developed plates were visualized using UV light at wavelengths of 254 and 365 nm. ^1H NMR spectra were recorded at 500 MHz or 600 MHz on a Bruker Advance-II-HD NMR spectrometer. ^13C NMR spectra were recorded 150 MHz on a Bruker Advance-III-HD NMR spectrometer. All ^1H NMR spectra were taken in CDCl3 (referenced to TMS, δ 0.00 ppm) or DMSO-d6 (referenced to residual DMSO, δ 2.50 ppm). All ^13C NMR spectra were taken in CDCl3 (referenced to chloroform, δ 77.16 ppm) or DMSO-d6 (referenced to DMSO, δ 39.52 ppm). Absorbance and fluorescence spectra were obtained in a 1 cm Quartz cuvette with dichloromethane using an Agilent Cary 100 UV-Vis spectrometer and a Horiba Jobin Yvon Fluoromax-4 Fluorimeter. Fluorescent quantum yield was measured in dichloromethane at room temperature using a Hamamatsu absolute PL quantum yield measurement system. Electrochemical experiments were performed using a Biologic SP-50 potentiostat with a Ag wire reference electrode, Pt wire counter electrode, and glassy carbon working electrode under nitrogen atmosphere in 100 mM solutions of Bu4NPF6 in DCM with ferrocene as a reference. All reagents were obtained commercially unless otherwise noted. Compounds para-benzoquinone mono-methyl ketal, compound A, compound B, PPh3 Pd Gen III, and SPhos Pd Gen 1115 were prepared according to literature procedure.
In this example, the photophysical properties of nanohoop compound embodiments comprising meta-substitution (wherein the meta-substitution refers to the fact that one of the rings of the nanohoop skeleton is connected to other rings of the nanohoop skeleton via bonds that are meta-substituted relative to each other) was evaluated. It was determined that disrupting the conjugation of the nanohoop allows the HOMO→LUMO absorption and “turns on” the fluorescence in the smaller sizes (e.g., 6-membered and 5-membered nanohoops). The absorption and emission data as well as extinction coefficients and quantum yields were collected. […] Two absorption transitions can be seen in for the smaller sizes, but the second transition blue-shifts and overlaps with the absorption at 328 nm for [10]- and [12]mCPP. The extinction coefficient of the higher energy transition is larger than that of the lower energy transition in all cases (Table 10). […] Graphs showing the extinction coefficient determination of [5]mCPP at the absorbance maxima and HOMO→LUMO transition are provided in FIGS. 10A and 10B, respectively. Graphs showing the extinction coefficient determination of [6]mCPP at the absorbance maxima and HOMO→LUMO transition are provided in FIGS. 11A and 11B, respectively. Graphs showing the extinction coefficient determination of [7]mCPP at the absorbance maxima and HOMO→LUMO transition are provided in FIGS. 12A and 12B, respectively. Graphs showing the extinction coefficient determination of [8]mCPP at the absorbance maxima and HOMO→LUMO transition are provided in FIGS. 13A and 13B, respectively. Graphs showing the extinction coefficient determination of [10]mCPP and [12]mCPP at the absorbance maxima are provided in FIGS. 14 and 15, respectively. […]

[2] = all-para [n]CPP, n≤7; cited from earlier work
HeLa cells = experiment: Colorimetric CCK-8 viability assay of HeLa cells; type: cell-based; details: [12]CPP 0.25-1 uM, [8]CPP 0.5-2 uM, 5 wt percent Pluronic F108 in DMEM
Description: HeLa cells were treated with varying concentrations of [8]CPP and [12]CPP in the presence of 5 wt percent Pluronic F108 in DMEM, and their viability was measured using a colorimetric CCK-8 assay (purchased from Dojindo and performed following the assay instructions). Briefly, the cells were treated with the nanohoop compound and the tetrazolium salt WST-8 at each concentration for 2 hours at 37 degrees Celsius, and the optical density of the cells was subsequently measured at 450 nm. The viability of cells treated with the [12]CPP and [8]CPP compounds is illustrated in FIGS. 1 and 2, respectively.
In this example, HeLa cells were treated with the disulfonated[8]CPP nanohoop Compound 1 at concentrations of 5 uM, 10 uM, 25 uM, 50 uM and 100 uM and their viability was measured using a standard colorimetric CCK-8 assay, as described above for Example 1. The percentage of living cells remaining after exposure to various concentrations of Compound 1 is illustrated in the graph shown in FIG. 3.

Question: With `O[C@]12C=C[C@](O)(CC1)c1ccc(cc1)-c1ccc(cc1)[C@]1(O)C=C[C@@H](C=C1)c1ccc(cc1)-c1cccc(c1)-c1ccc2cc1` [[7]mCPP] as the compound, how does the “H→L Absorbance” value ([1]; HOMO→LUMO transition) read?
Answer: Its value is 394 nm.

Question: And the “εAmax × ΦAmax (brightness)” value [1]?
Answer: The value was 2.3 × 10^4.

Question: And the Emission [1]?
Answer: The Emission was 491 nm.

Question: And the “Max Abs” value [1]?
Answer: Its value is 328 nm.

Question: And the “ΦAmax (fluorescence quantum yield)” value [1]?
Answer: Its value is 0.450.

Question: And the εAmax [1]?
Answer: Its εAmax is 5.1 × 10^4 ± 0.09 M^−1cm^−1.

Question: What about the εH→L [1] of the same compound?
Answer: The εH→L was 9.9 × 10^3 ± 0.08 M^−1cm^−1.

Question: With `c1cc2ccc1=c1ccc(cc1)=c1ccc(cc1)=c1ccc(cc1)=c1ccc(cc1)=c1ccc=2cc1` [[6]CPP, reference compound] as the compound, how does the “CPP ε × Φ (brightness)” value [1] read?
Answer: The value was 0.

Question: What about the “fluorescence of para-substituted CPP (in words)” value (“fluorescence … (in words)” below) [2] of the same compound?
Answer: The value was “no fluorescence”.

Question: With `c1cc2ccc1=c1ccc(cc1)=c1ccc(cc1)=c1ccc(cc1)=c1ccc=2cc1` [[5]CPP, reference compound] as the compound, how does the “absorption (extinction coefficient) compared with [5]mCPP” value ([1]; all-para [5]CPP, HOMO→LUMO transition) read?
Answer: Its value is 450 M⁻¹ cm⁻¹.

Question: And the “CPP ε × Φ (brightness)” value [1]?
Answer: The value was 0.

Question: And the “fluorescence … (in words)” value [2]?
Answer: Its value is “no fluorescence”.

Question: Which “CPP ε × Φ (brightness)” value [1] does the source give for `c1cc2ccc1-c1ccc(cc1)-c1ccc(cc1)-c1ccc(cc1)-c1ccc(cc1)-c1ccc(cc1)-c1ccc(cc1)-c1ccc(cc1)-c1ccc(cc1)-c1ccc-2cc1` [[10]CPP, reference compound] here?
Answer: The value was 8.5 × 10^4.

Question: Which “toxicity to HeLa cells (in words)” value (HeLa cells) does the source give for `c1cc2ccc1-c1ccc(cc1)-c1ccc(cc1)-c1ccc(cc1)-c1ccc(cc1)-c1ccc(cc1)-c1ccc(cc1)-c1ccc(cc1)-c1ccc(cc1)-c1ccc(cc1)-c1ccc(cc1)-c1ccc-2cc1` [[12]CPP, reference compound] here?
Answer: The value was “not toxic”.

Question: What about the “CPP ε × Φ (brightness)” value [1] of the same compound?
Answer: The value was 1.4 × 10^5.

Question: For `O[C@]12C=C[C@](O)(C=C1)c1ccc(cc1)[C@]1(O)C=C[C@@](O)(C=C1)c1ccc(cc1)-c1cccc(c1)[C@@H]1C=CC2=CC1` [[6]mCPP], which “H→L Absorbance” value ([1]; HOMO→LUMO transition) is on record?
Answer: The value was 410 nm.

Question: What about the “εAmax × ΦAmax (brightness)” value [1] of the same compound?
Answer: The value was 1.2 × 10^4.

Question: What about the Emission [1] of the same compound?
Answer: Its Emission is 510 nm.

Question: And the “Max Abs” value [1]?
Answer: The value was 328 nm.

Question: And the “ΦAmax (fluorescence quantum yield)” value [1]?
Answer: Its value is 0.224.

Question: And the εAmax [1]?
Answer: Its εAmax is 5.4 × 10^4 ± 0.3 M^−1cm^−1.

Question: And the εH→L [1]?
Answer: The εH→L was 9.4 × 10^3 ± 0.5 M^−1cm^−1.

Question: Which results are given for `c1cc2cc(c1)-c1ccc(cc1)-c1ccc(cc1)-c1ccc(cc1)-c1ccc(cc1)-c1ccc(cc1)-c1ccc(cc1)-c1ccc(cc1)-c1ccc(cc1)-c1ccc-2cc1` [[10]mCPP]?
Answer: εAmax × ΦAmax (brightness) [1]: 5.2 × 10^4; overall brightness versus commercial fluorophores (in words) ([1]; compared with DAPI and Rhodamine 110): brighter than many commercial fluorophores; Emission [1]: 456 nm; Max Abs [1]: 328 nm; ΦAmax (fluorescence quantum yield) [1]: 0.726; εAmax [1]: 7.1 × 10^4 ± 0.2 M^−1cm^−1

Question: Which “toxicity to HeLa cells (in words)” value (HeLa cells) does the source give for `c1cc2ccc1=c1ccc(cc1)=c1ccc(cc1)=c1ccc(cc1)=c1ccc(cc1)=c1ccc(cc1)=c1ccc(cc1)=c1ccc=2cc1` [[8]CPP, reference compound] here?
Answer: The value was “not toxic”.

Question: What about the “CPP ε × Φ (brightness)” value [1] of the same compound?
Answer: The value was 1.0 × 10^4.

Question: With `CO[C@]12C=C[C@](O)(C=C1)c1ccc(cc1)-c1cccc(c1)-c1ccc(cc1)[C@]1(O)C=C[C@@](OC)(C=C1)C1C=CC(=CC1)[C@]1(O)C=C[C@@](O)(CC1)[C@H]1C=CC2=CC1` [[8]mCPP] as the compound, how does the “H→L Absorbance” value ([1]; HOMO→LUMO transition) read?
Answer: Its value is 376 nm.

Question: What about the “εAmax × ΦAmax (brightness)” value [1] of the same compound?
Answer: The value was 3.7 × 10^4.

Question: What about the Emission [1] of the same compound?
Answer: The Emission was 484 nm.

Question: And the “Max Abs” value [1]?
Answer: The value was 326 nm.

Question: And the “ΦAmax (fluorescence quantum yield)” value [1]?
Answer: The value was 0.595.

Question: What about the εAmax [1] of the same compound?
Answer: Its εAmax is 6.2 × 10^4 ± 0.9 M^−1cm^−1.

Question: What about the εH→L [1] of the same compound?
Answer: Its εH→L is 1.4 × 10^4 ± 0.1 M^−1cm^−1.

Question: For `c1cc2ccc1-c1ccc(cc1)-c1ccc(cc1)-c1ccc(cc1)-c1ccc(cc1)-c1ccc(cc1)-c1ccc-2cc1` [[7]CPP, reference compound], which “CPP ε × Φ (brightness)” value [1] is on record?
Answer: Its value is 4.8 × 10^2.

Question: And the “fluorescence … (in words)” value [2]?
Answer: Its value is “only weak fluorescence”.
